Results published in patent publication US20040198716A1, “Cysteine protease inhimbitors” (priority 2001, published 2004).

Assays:
[1] = target: T1, human recombinant caspase-3 (Homo sapiens, UniProt P42574); experiment: In vitro high throughput caspase-3 assay; format: biochemical; details: for Percent Activity: percentage of the positive control, 20-250 μM test compound, lower = better inhibition, negative = better than control caspase inhibitor; for Ki: calculated from IC50 according to Equation 1, read-out: Ki(app); for IC50: fixed substrate concentration of 55 μM, inhibitors 75 to 0.067 μM in duplicate
T1 construct: purchased Sigma
T1 sequence (P42574 29-175 limits assumed): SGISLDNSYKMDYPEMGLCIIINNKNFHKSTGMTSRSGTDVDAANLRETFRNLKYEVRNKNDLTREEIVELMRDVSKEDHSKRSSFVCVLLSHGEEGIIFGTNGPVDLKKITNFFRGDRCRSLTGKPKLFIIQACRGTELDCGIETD
T1 sequence (P42574 176-277 limits assumed): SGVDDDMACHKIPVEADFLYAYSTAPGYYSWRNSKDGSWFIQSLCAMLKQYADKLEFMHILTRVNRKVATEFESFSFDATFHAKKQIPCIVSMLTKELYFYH
Method: Purified Human recombinant caspase-3, fluorescence labeled substrate (Acetyl-Asp-Glu-Val-Asp-7-amino-4-trifluoromethyl coumarin), and known inhibitor (Z-Asp-Glu-Val-Asp-fluoromethyl ketone) can be purchased from Sigma Chemical Co. (St. Louis, Mo.). The enzyme reactions are carried out at room temperature in 10 mM PIPES pH=7.4, 2 mM EDTA, 0.1% CHAPS, 5 mM DTT reaction buffer. Each well on the 96 well plate contains the above reaction buffer plus 55 μM fluorescence labeled substrate, 0.125 μg caspase-3, and 20-250 μM test compound. Positive and negative controls are present on each assay plate. A standard curve is generated using 7-amino-4-trifluoromethyl coumarin in the concentration range from 0.15 μM to 5.0 μM. The reactions are preferably read every 0.5 hours using a fluorescence microtiter plate reader set for 390 nm excitation and 538 nm emission for the first 4 hours after which the plates are left at room temperature overnight. One reading is taken the next morning as a final measurement.
To determine the caspase inhibitory activity of these compounds, the in vitro high throughput caspase-3 assay presented herein was utilized. Purified human recombinant caspase-3, fluorescence labeled substrate (Acetyl-Asp-Glu-Val-Asp-7-amino-4-trifluoromethyl coumarin), and known inhibitor (Z-Asp-Glu-Val-Asp-fluoromethyl ketone) were purchased from Sigma. The enzyme reactions were carried out at room temperature in 10 mM PIPES pH=7.4, 2 mM EDTA, 0.1% CHAPS, 5 mM DTT reaction buffer. Each well on the 96 well plate contained the above reaction buffer plus 55 μM fluorescence labeled substrate, 0.125 μg caspase-3, and 20-250 μM test compound. Positive and negative controls were present on each assay plate. A standard curve was generated using 7-amino-4-trifluoromethyl coumarin in the concentration range from 0.15 μM to 5.0 μM. The reactions were read every 0.5 hours using a fluorescence microtiter plate reader set for 390 nm excitation and 538 nm emission for the first 4 hours after which the plates were left at room temperature overnight. One reading was taken the next morning as a final measurement.
Ki determinations were carried out using the above assay system. […] Ki(app) was calculated according to Equation 1: [formula]
The concentration of inhibitors ranged from 75 to 0.067 μM with each inhibitor concentration assayed in duplicate. The Km for the substrate was determined from a standard Lineweaver-Burke plot.

[2] = target: T2, Human Rhinovirus serotype 1A 3C Protease (Human rhinovirus 1A, UniProt P23008); experiment: 3C Protease Biochemical Assay (FRET); details: 30° C., 2-6uM substrate, 416 nM 3CP
T2 construct: used to clone the 3C Protease into the expression vector pET16-b; made in house; host or cells: E. coli BL21-DE3-pLys-S
Method: Human Rhinovirus serotype 1A (ATCC) was used to clone the 3C Protease into the expression vector pET16-b and transformed for production into the E. coli strain BL21-DE3-pLys-S. 3C Protease expression was induced with 1 mM IPTG at 25° C. and purified from the soluble protein extract by chromatography on a SourceQ (Pharmacia) followed by gel filtration. HRV 3CP activity was measured by fluorescence resonance energy transfer using a dimodified decapeptide substrate MOC-[…]DNP-NH2 (7-methoxy coumarin-4-acetic acid fluorochrome and dinitrophenol quencher) with a Km value of 16.8 μM. Inhibition was measured as a change in initial velocity (V0) as a function of inhibitor (I) concentration and substrate (S) concentration. […] Fluorescence was monitored by excitation at 328 nm and emission at 393 nm with 10 nm cutoffs. Data were analyzed with the nonlinear regression analysis program EnzFitter (BioSoft) with the equation:
Ki=(I/((VmaxxS)/V0)/Ks)−I−S
Substrate concentrations used were lower than the Km of the substrate (16.8 uM) so no corrections for an S/Km term were used.

T2 sequence (P23008 1515-1697): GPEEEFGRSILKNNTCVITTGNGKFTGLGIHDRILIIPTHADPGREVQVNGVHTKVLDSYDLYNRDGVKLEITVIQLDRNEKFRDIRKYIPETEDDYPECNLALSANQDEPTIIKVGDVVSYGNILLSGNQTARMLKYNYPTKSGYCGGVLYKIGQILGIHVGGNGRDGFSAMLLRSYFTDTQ

Percent Activity [1]	Ki [1]	IC50 [1]	Structure (SMILES)	Ki [2]
22.68%	–	–	CC(C)=CCC(O)C1CC(=O)c2c(O)ccc(O)c2C1=O (mixture of isomers) [cpi0138.0001]	–
30.37%	–	–	CC(C)=CCC(O)C1CC(=O)c2c(O)ccc(O)c2C1=O (mixture of isomers) [cpi0138.0002]	–
45.72%	–	–	O=C1c2ccccc2C(=O)c2c(O)ccc(O)c21 [cpi0130]	–
−8.938%	0.807 µM	5.09 µM	O=C(O)c1c(O)c2c(c(O)c1Cl)C(=O)c1ccccc1C2=O [cpi0136.0001]	–
−3.391%	0.0682 µM	0.43 µM	NC(=O)NN=C1C=CC(=O)c2c(O)cccc21 [cpi0136.0004]	–
−2.336%	1.41 µM	8.9 µM	O=C1c2ccccc2C(=O)c2c1cc(S(=O)(=O)O)c(O)c2O [cpi0136.0005]	–
−2.295%	0.762 µM	4.8 µM	O=C1c2ccccc2C(=O)c2c(O)c(O)cc(O)c21 [cpi0136.0006]	–
−0.8437%	1.77 µM	11.2 µM	Nc1ccc(O)c2c1C(=O)c1ccccc1C2=O [cpi0136.0007]	–
−0.715%	0.557 µM	3.51 µM	O=C1C=CC(=NNc2cc([N+](=O)[O-])cc([N+](=O)[O-])c2)c2cccc(O)c21 [cpi0136.0008]	–
1.452%	9.76 µM	61.5 µM	O=C1C(c2ccc(O)c(O)c2)=C(O)C(=O)c2c(O)cc(O)cc21 [cpi0136.0010]	–
2.42%	1.13 µM	7.13 µM	O=C(O)Cc1cc(O)c2c(c1O)C(=O)c1ccccc1C2=O [cpi0136.0011]	–
24.8%	16.7 µM	106 µM	Cc1ccc2[nH]c3c(cc(O)c4c(=O)c5ccccc5c(=O)c43)oc2c1 [cpi0136.0017]	–
36.98%	54.2 µM	342 µM	O=C1C=CC(=NNc2ccc([N+](=O)[O-])cc2[N+](=O)[O-])c2cccc(O)c21 [cpi0136.0020]	–
51.3817%	3.05 µM	19.2 µM	COc1c(C)c([N+](=O)[O-])c(O)c2c1C(=O)c1ccccc1C2=O [cpi0136.0024]	–
54.1256%	40.5 µM	255 µM	O=C(COc1cc(O)c2c(=O)cc(-c3ccccc3)oc2c1)OCc1ccccc1 [cpi0136.0025]	–
–	0.503 µM	3.17 µM	O=C1C(Br)=C(Br)C(=O)c2c(O)c(Br)c(Br)c(O)c21 [cpi0140]	–
−0.6303%	–	–	CC(=O)OCCNc1cc(Br)c2noc3c2c1C(=O)c1ccccc1-3 [cpi0156.0034]	–

Percent Activity [1]	Ki [1]	IC50 [1]	Structure (SMILES)	Ki [2]
11.08%	–	–	O=C1c2ccccc2-c2onc3ccc(Oc4c(F)c(F)c(F)c(F)c4F)c1c23 [cpi0156.0042]	–
3.338%	–	–	O=C(NC1CCCCC1)c1ccc2c3c(onc13)-c1ccccc1C2=O [cpi0156.0045]	–
−1.772%	–	–	CC(=O)N(Cc1ccccc1)C1=C(Cl)C(=O)c2ccccc2C1=O [cpi0156.0046]	–
28.63%	–	–	O=C1c2ccccc2-c2onc3c(N4CCN(c5ccccc5)CC4)ccc1c23 [cpi0156.0047]	–
18.82%	–	–	O=C1c2ccccc2-c2onc3c(N4CCCCC4)cc(Nc4ccccc4)c1c23 [cpi0156.0048]	–
6.782%	–	–	CNc1cc(Nc2ccccc2)c2c3c(onc13)-c1ccccc1C2=O [cpi0156.0051]	–
31.97%	–	–	CN(C)c1cc(Nc2ccccc2)c2c3c(onc13)-c1ccccc1C2=O [cpi0156.0052]	–
−3.264%	–	–	COc1ccc2noc3c2c1C(=O)c1ccccc1-3 [cpi0156.0054]	–
−1.448%	–	–	Cc1cccc(Oc2ccc3noc4c3c2C(=O)c2ccccc2-4)c1 [cpi0156.0055]	–
1.882%	–	–	O=C1c2ccccc2-c2onc3ccc(Cl)c1c23 [cpi0156.0056]	–
24.72%	–	–	COc1ccc2c(c1OC)C(=O)OC2CC(=O)c1ccc(O)cc1O (stereo not shown) [cpi0156.D1]	–
50.76%	52.8 µM	–	O=C(NN=Cc1ccccc1)C12CC3CC(C1)CC(C(=O)NN=Cc1ccccc1)(C3)C2 [cpi0157.B2]	–
36.41%	131 µM	825 µM	Cc1cc(C(=O)NN)c2cc(Br)ccc2n1 [cpi0157.C3]	–
31.50%	39.9 µM	251 µM	N#CC1=C(N)SC(N)=C(C#N)C1c1cccc(F)c1 [cpi0157.F9]	–
19.48%	14.5 µM	91 µM	N#CC1=C(N)NC(SCc2ccccc2)=C(C#N)C12CCCC2 [cpi0157.F10]	–
33.47%	–	–	COc1cc(NC2OC(CO)C(O)C(O)C2O)ccc1C (stereo not shown) [cpi0159.C3]	–
–	0.0054 µM	0.03 µM	O=C(O)C1Cc2c([nH]c3ccccc23)C(c2ccncc2)N1 (stereo not shown) [cpi0190]	–

Structure (SMILES)	Percent Activity [1]	Ki [1]	IC50 [1]	Ki [2]
O=C1C=CC(=O)c2ccccc21 [cpi0126]	−0.30%	0.642 µM	4.04 µM	515 µM
CC1=CC(=O)c2ccccc2C1=O [cpi0127]	1.32%	0.694 µM	4.37 µM	242 µM
O=C1C(Cl)=C(Cl)C(=O)c2ccccc21 [cpi0128]	1.67%	1.05 µM	6.62 µM	–
O=C1C=CC(=O)c2c(O)cccc21 [cpi0136.0002]	−6.091%	0.0026 µM	0.02 µM	–
O=C1C(Br)=C(Br)C(=O)c2c1ccc(Br)c2O [cpi0139]	–	69.8 µM	440 µM	154 µM
O=C1C(Br)=CC(=O)c2c(O)cccc21 [cpi0141]	–	4.91 µM	30.9 µM	73 µM
O=C1C(Cl)=C(N2CCOCC2)C(=O)c2ccccc21 [cpi0156.0044]	−1.376%	–	–	–
